Assay results reported in PubChem BioAssay (NCI).
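Briefly, cells in 96-well plates were exposed to five compound concentrations for 48 h, and endpoints were estimated by linear interpolation. Here, GI50 denotes the concentration required for 50% inhibition of growth. TGI: total growth inhibition.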

Legend:
Test in all cases: inhibition of tumour cell growth, NCI panel, 48 h
[1] = test system: HOP-62 NSCLC
[2] = test system: SK-MEL-28 melanoma
[3] = test system: SK-MEL-2 melanoma
[4] = test system: HCC-2998 colon
[5] = test system: SK-MEL-5 melanoma
[6] = test system: SNB-19 CNS
[7] = test system: HS 578T breast
[8] = test system: DU-145 prostate
[9] = test system: BT-549 breast
[10] = test system: MCF7 breast

SMILES	TGI [1] [µM]	TGI [2] [µM]	TGI [3] [µM]	TGI [4] [µM]	TGI [5] [µM]	TGI [6] [µM]	GI50 [1] [µM]	GI50 [2] [µM]	GI50 [3] [µM]	GI50 [4] [µM]	GI50 [7] [µM]	TGI [7] [µM]	GI50 [8] [µM]	TGI [8] [µM]	GI50 [9] [µM]	TGI [9] [µM]	GI50 [5] [µM]	GI50 [6] [µM]	GI50 [10] [µM]	TGI [10] [µM]
CN=C(N)NC	> 100	> 100	> 100	> 100	> 100	> 100	–	–	–	–	–	–	–	–	–	–	–	–	–	–
CC1(C)Oc2ccccc2[N+]([O-])=C1c1ccccc1	> 100	> 100	–	> 100	> 100	> 100	–	–	–	–	–	–	–	–	–	–	–	–	–	–
CCOc1ccc(N=Cc2ccc3ccccc3n2)cc1	> 100	> 100	> 100	> 100	> 100	> 100	–	–	–	–	–	–	–	–	–	–	–	–	–	–
C[C@@]1(O)CCC[C@H]1n1c(=O)c(C(F)F)cc2cnc(NC3CCN(S(C)(=O)=O)CC3)nc21	> 100	10.9	6.34	> 100	7.91	16.8	2.03	2.06	2.28	0.539	1.48	7.28	2.18	54.7	1.94	9.39	1.15	1.34	–	–
COC(=O)C1=C(O)c2cc3c(cc2[C@H](c2cc(OC)c(OC)c(OC)c2)C1)OCO3	> 100	> 100	–	–	61.1	> 100	–	–	–	–	–	–	–	–	–	–	–	–	–	–
O=C(COC(=O)c1cccc2c(=O)c3ccccc3[nH]c12)Nc1ccc(S(=O)(=O)Nc2ncccn2)cc1	> 100	> 100	–	> 100	> 100	93.2	–	–	–	–	–	–	–	–	–	–	–	–	–	–
N/C(=N\N=C\c1ccc(O)c(O)c1)NO	> 100	> 100	> 100	> 100	> 100	> 100	–	–	–	–	–	–	–	–	–	–	–	–	–	–
COc1ccc2c(c1OC)C(C=C(c1ccccc1)c1ccccc1)CN(C)C2 (stereo not drawn)	62.2	57.9	–	67.1	29.7	> 100	–	–	–	–	–	–	–	–	–	–	–	–	–	–
CC1=CC2=C(C#N)C(=O)OC2(C)C(c2ccccc2)C1 (stereo not drawn)	> 100	> 100	> 100	–	–	> 100	–	–	–	–	–	> 100	–	> 100	–	> 100	–	–	–	–
COc1cc2ccc3c4cc(OC)c(OC(C)C)cc4c[n+](C)c3c2cc1OC	> 100	> 100	55.6	> 100	> 100	> 100	–	–	–	–	–	–	–	–	–	–	–	–	–	–
C=C1C(=O)O[C@H]2[C@H]1CC/C(Cn1cc(-c3ccsc3)nn1)=C\CC[C@@]1(C)O[C@@H]21	18.9	4.02	5.34	3.42	3.88	23.2	4.9	1.81	2.27	1.84	2.82	16	1.43	2.88	1.8	5.21	1.83	9.49	–	–
Cn1cc2ccccc2c1-c1nc(F)nc(Nc2ccc(N)cc2)n1	55.8	30.6	30.1	32.1	25	95.5	–	–	–	–	–	–	–	–	–	–	–	–	–	–
CC(C)=CCC/C(C)=C/CC/C(C)=C/C1CCC(=O)C1(C)C (stereo not drawn)	69.6	54	34.1	38.2	29.3	65.2	–	–	–	–	–	–	–	–	–	–	–	–	–	–
[N-]=[N+]=NC1C2CC3CC(C2)CC1C3 (stereo not drawn)	> 100	> 100	> 100	> 100	> 100	> 100	–	–	–	–	–	–	–	–	–	–	–	–	–	–
O=c1c(-c2nc3ccccc3[nH]2)cc2ccccc2n1Cc1cn(Cc2ccccc2Cl)nn1	–	3.35	10.8	37.4	–	28.3	–	1.82	3.07	4.19	1.93	5.91	1.72	3.21	–	–	–	4.32	1.78	3.77
COC(=O)c1ccc(/C=C/S(=O)(=O)c2ccccc2)cc1	> 100	> 100	> 100	–	> 100	> 100	–	–	–	–	–	–	–	–	–	–	–	–	–	–
CCN(CC)/[N+]([O-])=N/OCC(C)O (stereo not drawn)	> 100	> 100	> 100	> 100	> 100	> 100	–	–	–	–	–	–	–	–	–	–	–	–	–	–
CNC(=S)N(C1CCCCC1)C1CCCCC1	> 100	> 100	> 100	> 100	> 100	> 100	–	–	–	–	–	98.8	–	> 100	–	–	–	–	–	> 100
